# Results taken from patent US5656660A, “Compositions and methods for treating mast-cell mediated conditions” (Arris Pharmaceutical Corporation, priority 1995, dated 1997).
# Molecular target: tryptase
# Experiment: In vitro tryptase inhibition assay
# Type: biochemical, human
# Settings: tosyl-Gly-Pro-Lys-p-nitroanilide 0.5 mM; 1 h preincubation at room temperature; pH 8.2
# Method: The compounds to be assayed (approximately 1 mg) were dissolved in 200 μL dimethylsulfoxide (DMSO) and diluted 1:10 into buffer containing 50 millimolar (mM) Tris-HCl (pH 8.2), 100 mM sodium chloride, and 0.05% polyoxyethylenesorbitan monolaurate (Tween-20°, available from Sigma, St. Louis, Mo.). Seven additional threefold dilutions were made from the initial dilution into the same buffer supplemented with 10% DMSO. Aliquots (50 microliters, μL) from each of the eight dilutions in the series were transferred to individual wells in a 96-well U-bottom microtiter plate. […] The tryptase solution was prepared by placing 60 μg/mL of tryptase into solution with 10 mM MES (2-[N-Morpholino]ethane sulfonic acid) containing 2 mM CaCl2, 20% glycerol and 50 μg/mL heparin. The enzyme reaction was initiated with the addition of the synthetic tripeptide substrate, tosyl-Gly-Pro-Lys-p-nitroanilide (available from Sigma, 25 μL; 0.5 mM final concentration). […] Initial velocity measurements calculated from the progress curves by a kinetic analysis program (BatchKi; Petr Kuzmic, University of Wisconsin, Madison, Wis.) were used to determine apparent inhibition constants for each inhibitor.
row,Molecule,Ki [nM]
1,N=C(N)Nc1ccc(CNC(=O)[C@H](Cc2ccccc2)NC(=O)OCc2ccc(COC(=O)N[C@@H](Cc3ccccc3)C(=O)NCc3ccc(NC(=N)N)cc3)cc2)cc1 [Example 7],227
2,"N=C(N)Nc1ccc(CNC2=CCCC(=O)N2C(=O)OCc2ccc(COC(=O)N3C(=O)CCC=C3NCc3ccc(NC(=N)N)cc3)cc2)cc1 [Example 40, Bis((R,S)-2-(4-guanidinobenzylamino)-2,3-dehydro-6-piperidone)-1,4-benzenedimethanol dicarbamate]",463
3,"NCc1ccc(CNC(=O)CC(=O)NCc2ccc(CNC(=O)CC(=O)NCc3ccc(CN)cc3)cc2)cc1 [Example 9, N,N'-Bis(N-(4-aminomethylbenzl)-malonamido)-p-xylylene diamide]",150
4,"NC[C@H]1CC[C@H](C(=O)NCCCCNC(=O)OCc2ccc(COC(=O)NCCCCNC(=O)[C@H]3CC[C@H](CN)CC3)cc2)CC1 [Example 33, N,N'-Bis(trans-4-aminomethyl-cyclohexyl-1-amidobutyl)-1,4-benzene dimethanol dicarbamate]",48
5,"Bis((R,S)-2-(2-(4-guanidinobenzylamino)-2,3-dehydro-6-piperidone)-1,4-benzenedimethanol dicarbmate [Example 41]",611
6,N=C(N)Nc1ccc(CNC(=O)CCC(=O)NCc2ccc(CNC(=O)CCC(=O)NCc3ccc(NC(=N)N)cc3)cc2)cc1 [Example 37],40
7,"CN(Cc1ccc(CN)cc1)C(=O)CCC(=O)NCc1ccc(CNC(=O)CCC(=O)N(C)Cc2ccc(CN)cc2)cc1 [Example 30, N,N,-Bis(N-methyl-N-(4-aminomethylbenzyl)-succinamido)-p-xylylene diamide]",2300
8,"NCc1ccc(C(=O)NCCCCNC(=O)c2ccc(C(=O)NCCCCNC(=O)c3ccc(CN)cc3)cc2)cc1 [Example 34, N,N'-Bis[4-(aminomethylbenzamido)butyl]-terephthalyldiamide]",222
9,"CC1(C)O[C@@H](C(=O)NCc2ccc(CN)cc2)[C@H](C(=O)NCc2ccc(CNC(=O)[C@@H]3OC(C)(C)O[C@H]3C(=O)NCc3ccc(CN)cc3)cc2)O1 [Example 28, N,N'-Bis(N-(4-aminomethylbenzyl)-dimethyl-2,3-isopropylidenetartaramido)-p-xylylene diamide]",643
10,N=C(N)Nc1ccc(CNC(=O)CCNC(=O)OCc2ccc(COC(=O)NCCC(=O)NCc3ccc(NC(=N)N)cc3)cc2)cc1 [Example 3],9
11,"CN(Cc1ccc(CN(C)C(=O)CCCC(=O)NCC2CCC(CN)CC2)cc1)C(=O)CCCC(=O)NCC1CCC(CN)CC1 (centres unmarked) [Example 27, N,N'-Bis(methyl)-bis(N-(4-aminomethylcyclohexylmethyl)-glutaramido)-p-xylylene didmine]",138
12,CN(Cc1ccc(CN(C)C(=O)c2ccc(CNC(=O)NC[C@H]3CC[C@H](CN)CC3)cc2)cc1)C(=O)c1ccc(CNC(=O)NC[C@H]2CC[C@H](CN)CC2)cc1 [Example 53],1200

# Continued by falling Ki, values first:
row,Ki [nM],Molecule
1,4000,"N=C(N)Nc1ccc(CNC(=O)[C@@H]2CCCN2C(=O)OCc2ccc(COC(=O)N3CCC[C@H]3C(=O)NCc3ccc(NC(=N)N)cc3)cc2)cc1 [Example 4, Bis((4-quanidylbenzyl)-L-prolineamide-N^α -carbonyl)-1,4-dimethanolbenzene]"
2,1100,"NCC1CCCC(CNC(=O)CCC(=O)NCc2ccc(CNC(=O)CCC(=O)NCC3CCCC(CN)C3)cc2)C1 (centres unmarked) [Example 29, N,N'-Bis(N-(3-aminomethylcyclohexylmethyl)-succinamido)-p-xylylene diamide]"
3,700,N=C(N)Nc1ccc(CNC(=O)NCC(=O)NCc2ccc(CNC(=O)CNC(=O)NCc3ccc(NC(=N)N)cc3)cc2)cc1 [Example 48]
4,396,"NCc1ccc(C(=O)NCCNC(=O)OCc2ccc(COC(=O)NCCNC(=O)c3ccc(CN)cc3)cc2)cc1 [Example 16, N,N'-Bis(4-aminomethylbenzamidoethylene)-1,4-benzenedimethanol dicarbamate]"
5,366,"C[C@@H](NC(=O)OCc1ccc(COC(=O)N[C@H](C)C(=O)NCc2ccc(CN)cc2)cc1)C(=O)NCc1ccc(CN)cc1 [Example 14, Bis(p-xylylenediamine-D-alanine)-1,4-benzenedimethanol dicarbamate]"
6,130,"CN(Cc1ccc(CN(C)C(=O)CNC(=O)NC[C@H]2CC[C@H](CN)CC2)cc1)C(=O)CNC(=O)NC[C@H]1CC[C@H](CN)CC1 [Example 51, N,N'-Bis(methyl)-bis(glycine-trans-1,4-cyclohexylbis(methylamine)urea)-p-xylylene diamide]"
7,127,"NCc1cccc(CNC(=O)CCC(=O)NCc2cccc(CNC(=O)CCC(=O)NCc3cccc(CN)c3)c2)c1 [Example 11, N,N'-Bis(N-(3-aminomethylbenzyl)succinamido)-m-xylylene diamide]"
8,123,"NCC1CCC(CNC(=O)CCC(=O)NCc2ccc(CNC(=O)CCC(=O)NCC3CCC(CN)CC3)cc2)CC1 (centres unmarked) [Example 26, N,N'-Bis(N-(4-aminomethylcyclohexylmethyl)-succinamido)-p-xylylene diamide]"
9,118,"CN(Cc1ccc(CN(C)C(=O)CCC(=O)NCC2CCC(CN)CC2)cc1)C(=O)CCC(=O)NCC1CCC(CN)CC1 (centres unmarked) [Example 25, N,N'-Bis(methyl)-bis(N-(4-aminomethylcyclohexylmethyl)succinamido)-p-xylylene diamide]"
10,107,"CN(CCCC(=O)NCc1ccc(CN)cc1)C(=O)c1ccc(C(=O)N(C)CCCC(=O)NCc2ccc(CN)cc2)cc1 [Example 20, N,N'-Bis(N-[4-aminomethylbenzyl)butyramido)-N,N'-bis(methyl)terephthalamide]"
11,86,"NCc1ccc(C(=O)NCCCC(=O)NCc2ccc(CNC(=O)CCCNC(=O)c3ccc(CN)cc3)cc2)cc1 [Example 12, N,N'-Bis(N-(4-aminomethylbenzamido)-4-aminobutyric)-p-xylylene diamide]"
12,79,"CN(Cc1ccc(CN(C)C(=O)CNC(=O)NCc2ccc(CN)cc2)cc1)C(=O)CNC(=O)NCc1ccc(CN)cc1 [Example 52, N,N'-Bis(methyl)-bis(glycine-p-xylylenediamine urea)-p-xylylene diamide]"
13,43,"NCc1ccc(CNC(=O)NCC(=O)NCCc2ccc(NC(=O)CNC(=O)NCc3ccc(CN)cc3)cc2)cc1 [Example 50, Bis(N-(4-aminomethylbenzyl)glycylurea)-1,4-phenethylenediamide]"
14,14,"CN(Cc1ccc(CN(C)C(=O)CCCC(=O)NCc2ccc(CN)cc2)cc1)C(=O)CCCC(=O)NCc1ccc(CN)cc1 [Example 17, N,N'-Bis(N-(4-aminomethylbenzyl)glutaramido)-N,N'-bis(methyl)-p-xylylene diamide]"
15,12,"NCC1CCC(CNC(=O)CNC(=O)OCc2ccc(COC(=O)NCC(=O)NCC3CCC(CN)CC3)cc2)CC1 (centres unmarked) [Example 31, Bis(1,4-cyclohexyldimethylamineglycine)-1,4-benzenedimethanol dicarbamate]"
16,5,"CN(CC(=O)NCc1ccc(CN)cc1)C(=O)OCc1ccc(COC(=O)N(C)CC(=O)NCc2ccc(CN)cc2)cc1 [Example 18, Bis(p-xylylenediaminesarcosine)-1,4-benzenedimethanol dicarbamate]"
17,0.56,"NCc1ccc(CNC(=O)CNC(=O)OCc2ccc(COC(=O)NCC(=O)NCc3ccc(CN)cc3)cc2)cc1 [Example 1, Bis(p-xylylenediamineglycine)-1,4-benzenedimethanol dicarbamate]"
